In the test the target is transferrin receptor (hTfR) (Homo sapiens, UniProt P02786). Kind of test: Intermolecular interaction evaluation test between transferrin receptor (hTfR) and peptide by surface plasmon resonance (SPR). In kind it is binding. The essentials: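 Receptor was Ni-captured and EDC/NHS-fixed on an NTA chip; running buffer HEPES pH 8.0 with NaCl, Tween 20, BSA and 1.0% DMSO.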
The mark [1] stands for this setting: hTfR binding by SPR, hTfR No. 894 variant peptides, linker-added peptides and payload conjugates (Table 2), read-out: KD value obtained from the SPR measurement.
Setting [2] is: binding to hTfR by SPR, Table 2 peptides, read-out: KD value (SPR) class.
Where [3] appears, read: SPR, peptides, linker-added peptides and FITC conjugates, Patent ID 203-230, read-out: KD.
Where [4] appears, read: SPR, hTfR No. 894 variants with PEG12c linker (Table 2), read-out: KD.
Setting [5] is: surface plasmon resonance, hTfR, read-out: KD value for hTfR by SPR (class symbol).
Setting [6] is: surface plasmon resonance, peptide vs hTfR, read-out: KD value, hTfR binding by SPR (class symbol).

SMILES strings stand for the structures. pKd: −log10 of the molar value. Where two headings read alike, the source gives them in different places. Where a SMILES comes first, the peptide text is derived from it. Bridges are numbered along the chain shown (N, C = ends). [ ]: non-standard residue; d: D form. The star is where a group is joined. X2 = O=C(O)c1cc(C(=O)*)ccc1-c1c2ccc(=O)cc-2oc2cc(O)ccc12; PEG12 = NCCOCCOCCOCCOCCOCCOCCOCCOCCOCCOCCOCCOCCC(=O)O; NMePhe(3-Cl) = CN[C@@H](Cc1cccc(Cl)c1)C(=O)O; NMeW = CN[C@@H](Cc1c[nH]c2ccccc12)C(=O)O; NMeY = CN[C@@H](Cc1ccc(O)cc1)C(=O)O; NMeF = CN[C@@H](Cc1ccccc1)C(=O)O; Aad = N[C@@H](CCCC(=O)O)C(=O)O; hLys = NCCCCC[C@H](N)C(=O)O; Abu = CC[C@H](N)C(=O)O

Chain of transferrin receptor (hTfR) (P02786 whole entry): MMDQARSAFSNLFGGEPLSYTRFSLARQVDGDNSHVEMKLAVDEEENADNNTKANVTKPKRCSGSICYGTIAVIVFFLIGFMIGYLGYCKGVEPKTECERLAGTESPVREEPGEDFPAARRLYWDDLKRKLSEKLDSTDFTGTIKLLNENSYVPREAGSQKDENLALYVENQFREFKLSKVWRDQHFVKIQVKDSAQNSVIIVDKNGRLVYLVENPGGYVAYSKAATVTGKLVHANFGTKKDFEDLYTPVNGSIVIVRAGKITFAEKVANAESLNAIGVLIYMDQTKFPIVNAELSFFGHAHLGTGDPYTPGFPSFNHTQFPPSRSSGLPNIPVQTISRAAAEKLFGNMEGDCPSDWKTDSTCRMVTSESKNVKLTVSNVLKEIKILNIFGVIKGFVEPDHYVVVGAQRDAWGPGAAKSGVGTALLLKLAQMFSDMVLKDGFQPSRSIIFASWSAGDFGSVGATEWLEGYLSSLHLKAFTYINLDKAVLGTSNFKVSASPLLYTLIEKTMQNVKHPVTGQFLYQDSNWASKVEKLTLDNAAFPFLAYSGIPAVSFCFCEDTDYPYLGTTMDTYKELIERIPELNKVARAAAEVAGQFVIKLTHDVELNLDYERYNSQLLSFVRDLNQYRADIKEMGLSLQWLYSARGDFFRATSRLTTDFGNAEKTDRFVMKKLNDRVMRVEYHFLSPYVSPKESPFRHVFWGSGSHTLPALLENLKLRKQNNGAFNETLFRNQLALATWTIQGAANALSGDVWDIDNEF

What is called pKd is the negative decadic logarithm of the Kd, by convention in mol/L. For the compound `CC[C@H](C)[C@@H]1NC(=O)[C@H](Cc2ccc(O)cc2)NC(=O)[C@H](Cc2ccc(O)cc2)NC(=O)[C@H](CC(N)=O)NC(=O)[C@H](Cc2c[nH]c3ccccc23)N(C)C(=O)[C@H](C(C)C)NC(=O)[C@H](Cc2ccccc2)N(C)C(=O)[C@H](C(C)C)NC(=O)[C@H](C)NC(=O)CSC[C@@H](C(=O)NCCOCCOCCOCCOCCOCCOCCOCCOCCC(=O)N[C@@H](CCCCNC(=O)C2CCC(CN3C(=O)C=CC3=O)CC2)C(N)=O)NC(=O)[C@H](Cc2ccc(O)cc2)N(C)C(=O)[C@H](Cc2ccc(O)cc2)NC(=O)[C@H](CCCNC(=N)N)NC(=O)[C@H](CCCNC(=N)N)NC(=O)[C@H]([C@@H](C)CC)NC1=O` (some centres unmarked) [compound 185], the pKd under setting [1] was 7.00 to 9.00. For the compound `CC[C@H](C)[C@@H]1NC(=O)[C@H](Cc2ccc(O)cc2)NC(=O)[C@H](Cc2ccc(O)cc2)NC(=O)[C@H](CC(N)=O)NC(=O)[C@H](Cc2c[nH]c3ccccc23)N(C)C(=O)[C@H](C(C)C)NC(=O)[C@H](Cc2ccccc2)N(C)C(=O)[C@H](C(C)C)NC(=O)[C@H](C)NC(=O)CSC[C@@H](C(=O)NCCOCCOCCOCCOCCOCCOCCOCCOCCOCCOCCOCCOCCC(=O)N[C@@H](CCCCNC(=O)C2CCC(CN3C(=O)C=CC3=O)CC2)C(N)=O)NC(=O)[C@H](Cc2ccc(O)cc2)N(C)C(=O)[C@H](Cc2ccc(O)cc2)NC(=O)[C@H](CCCNC(=N)N)NC(=O)[C@H](CCCNC(=N)N)NC(=O)[C@H]([C@@H](C)CC)NC1=O` (some centres unmarked) [compound 183], under setting [1], the pKd was 7.00 to 9.00.

In the case of `CC[C@H](C)[C@@H]1NC(=O)[C@H](Cc2ccc(OC)cc2)NC(=O)[C@H](Cc2ccc(O)cc2)NC(=O)[C@H](CC(N)=O)NC(=O)[C@H](Cc2c[nH]c3ccccc23)N(C)C(=O)[C@H](C(C)C)NC(=O)[C@H](Cc2cccc(Cl)c2)N(C)C(=O)[C@H](CCC(=O)O)NC(=O)[C@H](C)NC(=O)CSC[C@@H](C(=O)NCC(=O)NCC(=O)NCC(=O)NCC(=O)N[C@@H](CO)C(=O)N[C@@H](CO)C(=O)N[C@@H](CS)C(N)=O)NC(=O)[C@H](Cc2ccc(O)cc2)N(C)C(=O)[C@H](Cc2ccccc2)NC(=O)[C@H](CCC(=O)O)NC(=O)[C@H](CCCNC(=N)N)NC(=O)[C@H]([C@@H](C)CC)NC1=O` [compound 231], the pKd under setting [2] is 7.00 to 9.00. Regarding `CC[C@H](C)[C@@H]1NC(=O)[C@H](Cc2ccc(O)cc2)NC(=O)[C@H](Cc2ccc(O)cc2)NC(=O)[C@H](CC(N)=O)NC(=O)[C@H](Cc2c[nH]c3ccccc23)NC(=O)[C@H](C(C)C)NC(=O)[C@H](Cc2ccccc2)NC(=O)[C@H](C(C)C)NC(=O)[C@H](C)NC(=O)CSC[C@@H](C(=O)NCCOCCOCCOCCOCCOCCOCCOCCOCCOCCOCCOCCOCCC(=O)N[C@@H](CCCCNC(=O)c2ccc(-c3c4ccc(=O)cc-4oc4cc(O)ccc34)c(C(=O)O)c2)C(N)=O)NC(=O)[C@H](Cc2c[nH]cn2)NC(=O)[C@H](C(C)C)NC1=O` [compound 204] ({CH2CO}-AVFVWNYYIVHC[PEG12]K(X2)-NH2; thioether N-12), under setting [3], the pKd was 6.00 to 7.00. Take `CC[C@@H]1NC(=O)CSC[C@@H](C(=O)NCCOCCOCCOCCOCCOCCOCCOCCOCCOCCOCCOCCOCCC(N)=O)NC(=O)[C@H](Cc2ccc(O)cc2)N(C)C(=O)[C@H](Cc2ccc(O)cc2)NC(=O)[C@H](CCCNC(=N)N)NC(=O)[C@H](CCCNC(=N)N)NC(=O)[C@H]([C@@H](C)CC)NC(=O)[C@H]([C@@H](C)CC)NC(=O)[C@H](Cc2ccc(O)cc2)NC(=O)[C@H](Cc2ccc(O)cc2)NC(=O)[C@H](CC(N)=O)NC(=O)[C@H](Cc2c[nH]c3ccccc23)NC(=O)[C@H](C(C)C)NC(=O)[C@H](Cc2ccccc2)N(C)C(=O)[C@H](C(C)C)NC1=O` [compound 111] ({CH2CO}-[Abu]V[NMeF]VWNYYIIRRY[NMeY]C[PEG12]-NH2; thioether N-15): the pKd under setting [4] was 7.00 to 9.00. On to `CC[C@H](C)[C@@H]1NC(=O)[C@H](Cc2ccc(OC)cc2)NC(=O)[C@H](Cc2ccc(O)cc2)NC(=O)[C@H](CC(N)=O)NC(=O)[C@H](Cc2c[nH]c3ccccc23)N(C)C(=O)[C@H](C(C)C)NC(=O)[C@H](Cc2cccc(Cl)c2)N(C)C(=O)[C@H](C(C)C)NC(=O)[C@H](C)NC(=O)CSC[C@@H](C(N)=O)NC(=O)[C@H](Cc2ccc(O)cc2)N(C)C(=O)[C@H](Cc2ccccc2)NC(=O)[C@@H](CCCNC(=N)N)NC(=O)[C@H](CCCNC(=N)N)NC(=O)[C@H]([C@@H](C)CC)NC1=O` [compound 397], for which the pKd under setting [5] is 7.00 to 9.00.

For `CC[C@H](C)[C@@H]1NC(=O)[C@H](Cc2ccc(OC)cc2)NC(=O)[C@H](Cc2ccc(O)cc2)NC(=O)[C@H](CC(N)=O)NC(=O)[C@H](Cc2c[nH]c3ccccc23)N(C)C(=O)[C@H](C(C)C)NC(=O)[C@H](Cc2cccc(Cl)c2)N(C)C(=O)[C@H](CCC(=O)O)NC(=O)[C@H](C)NC(=O)CSC[C@@H](C(N)=O)NC(=O)[C@H](CCC(=O)O)NC(=O)[C@H](CCCNC(=N)N)NC(=O)[C@@H]2CCCN2C(=O)[C@H](C(C)C)NC1=O` [compound 206] ({CH2CO}-AE[NMePhe(3-Cl)]V[NMeW]NYY(Me)IVPREC-NH2; thioether N-14), the pKd under setting [3] is 7.00 to 9.00. Regarding `CC[C@H](C)[C@@H]1NC(=O)[C@H](Cc2ccc(OC)nc2)NC(=O)[C@H](Cc2ccc(O)cc2)NC(=O)[C@H](CC(N)=O)NC(=O)[C@H](Cc2c[nH]c3ccccc23)N(C)C(=O)[C@H](C(C)C)NC(=O)[C@H](Cc2cccc(Cl)c2)N(C)C(=O)[C@H](C(C)C)NC(=O)[C@H](C)NC(=O)CSC[C@@H](C(N)=O)NC(=O)[C@H](Cc2ccc(O)cc2)N(C)C(=O)[C@H](Cc2ccccc2)NC(=O)[C@@H](CCCNC(=N)N)NC(=O)C(C)(C)NC(=O)[C@H]([C@@H](C)CC)NC1=O` [compound 323], the negative-log Kd (pKd) under setting [6] was 7.00 to 9.00. Take `CC[C@H](C)[C@@H]1NC(=O)[C@H](Cc2ccc(OC)cc2)NC(=O)[C@H](Cc2ccc(O)cc2)NC(=O)[C@H](CC(N)=O)NC(=O)[C@H](Cc2c[nH]c3ccccc23)N(C)C(=O)[C@H](C(C)C)NC(=O)[C@H](Cc2cccc(Cl)c2)N(C)C(=O)[C@@H]2CCCC(=O)NCCCCC[C@H](NC(=O)[C@H]([C@@H](C)CC)NC1=O)C(=O)N[C@H](CCCNC(=N)N)C(=O)N[C@@H](Cc1ccccc1)C(=O)N(C)[C@@H](Cc1ccc(O)cc1)C(=O)N[C@H](C(N)=O)CSCC(=O)N[C@@H](C)C(=O)N2` [compound 418] ({CH2CO}-A[Aad][NMePhe(3-Cl)]V[NMeW]NYY(Me)II[hLys][dR]F[NMeY]C-NH2; lactam 2-11 (inferred); thioether N-15 (inferred)): the pKd (surface plasmon resonance, peptide vs hTfR, read-out: KD value for hTfR by SPR (class symbol)) is 7.00 to 9.00.

For `CC[C@H](C)[C@@H]1NC(=O)[C@H](Cc2ccc(O)cc2)NC(=O)[C@H](Cc2ccc(O)cc2)NC(=O)[C@H](CC(N)=O)NC(=O)[C@H](Cc2c[nH]c3ccccc23)N(C)C(=O)[C@H](C(C)C)NC(=O)[C@H](Cc2ccccc2)N(C)C(=O)[C@H](C(C)C)NC(=O)[C@H](C)NC(=O)CSC[C@@H](C(N)=O)NC(=O)[C@H](Cc2ccc(O)cc2)N(C)C(=O)[C@H](Cc2ccc(O)cc2)NC(=O)[C@H](CCCNC(=N)N)NC(=O)[C@H](CCCCN)NC(=O)[C@H]([C@@H](C)CC)NC1=O` [compound 300], the pKd under setting [6] is 7.00 to 9.00. As to `CC[C@H](C)[C@@H]1NC(=O)[C@H](Cc2ccc(OC)cc2)NC(=O)[C@H](Cc2ccc(O)cc2)NC(=O)[C@H](CC(N)=O)NC(=O)[C@H](Cc2c[nH]c3ccccc23)N(C)C(=O)[C@H](C(C)C)NC(=O)[C@H](Cc2cccc(Cl)c2)N(C)C(=O)[C@H](C(C)C)NC(=O)[C@H](C)NC(=O)CSC[C@H](C(N)=O)NC(=O)[C@H](Cc2ccc(O)cc2)N(C)C(=O)[C@H](Cc2ccccc2)NC(=O)[C@@H](CCCNC(=N)N)NC(=O)[C@H](CCCNC(=N)N)NC(=O)[C@H]([C@@H](C)CC)NC1=O` [compound 396], the negative-log Kd (pKd) under setting [5] is 7.00 to 9.00. For the compound `CC[C@H](C)[C@@H]1NC(=O)[C@H](Cc2ccc(O)cc2)NC(=O)[C@H](Cc2ccc(O)cc2)NC(=O)[C@H](CC(N)=O)NC(=O)[C@H](Cc2c[nH]c3ccccc23)NC(=O)[C@H](C(C)C)NC(=O)[C@H](Cc2ccccc2)NC(=O)[C@H](C(C)C)NC(=O)[C@H](C)NC(=O)CSC[C@@H](C(N)=O)NC(=O)[C@H](Cc2ccc(O)cc2)N(C)C(=O)[C@H](CCCCN)NC(=O)[C@H](CCCNC(=N)N)NC(=O)[C@H](CCCNC(=N)N)NC(=O)[C@H]([C@@H](C)CC)NC1=O` [compound 261], under setting [2], the pKd is 7.00 to 9.00. For `CC[C@H](C)[C@@H]1NC(=O)[C@H](Cc2ccc(O)cc2)NC(=O)[C@H](Cc2ccc(O)cc2)NC(=O)[C@H](CC(N)=O)NC(=O)[C@H](Cc2c[nH]c3ccccc23)NC(=O)[C@H](C(C)C)NC(=O)[C@H](Cc2ccccc2)N(C)C(=O)[C@H](C(C)C)NC(=O)[C@H](C)NC(=O)CSC[C@@H](C(=O)NCCOCCOCCOCCOCCOCCOCCOCCOCCOCCOCCOCCOCCC(N)=O)NC(=O)[C@H](Cc2ccc(O)cc2)N(C)C(=O)[C@H](Cc2ccc(O)cc2)NC(=O)[C@H](CCCNC(=N)N)NC(=O)[C@H](Cc2ccc(O)cc2)NC(=O)[C@H]([C@@H](C)CC)NC1=O` [compound 121] ({CH2CO}-AV[NMeF]VWNYYIIYRY[NMeY]C[PEG12]-NH2; thioether N-15), the pKd under setting [4] was 7.00 to 9.00. `CC[C@H](C)[C@@H]1NC(=O)[C@H](Cc2ccc(O)cc2)NC(=O)[C@H](Cc2ccc(O)cc2)NC(=O)[C@H](CC(N)=O)NC(=O)[C@H](Cc2c[nH]c3ccccc23)NC(=O)[C@H](C(C)C)NC(=O)[C@H](Cc2ccccc2)NC(=O)[C@H](CCC(=O)O)NC(=O)[C@H](C)NC(=O)CSC[C@@H](C(N)=O)NC(=O)[C@H](Cc2ccc(O)cc2)N(C)C(=O)[C@H](Cc2ccc(O)cc2)NC(=O)[C@H](CCCNC(=N)N)NC(=O)[C@H](CCCNC(=N)N)NC(=O)[C@H]([C@@H](C)CC)NC1=O` [compound 219]: the pKd under setting [3] is 7.00 to 9.00.

For the origin of these results see patent US20230203098A1, “HUMAN TRANSFERRIN RECEPTOR BINDING PEPTIDE” (priority 2020, published 2023).
